In ChEMBL document CHEMBL4196117, “PK/PD Disconnect Observed with a Reversible Endothelial Lipase Inhibitor” (ACS Med Chem Lett, 2018):
Activity calls are given as the source filed them. No cut-off for these calls is given here.

Legend:
[1] = target: T1, Endothelial lipase (Homo sapiens) (UniProt Q9Y5X9); test: Competitive inhibition of endothelial lipase in human HT1080 cells using varying level of HDL as substrate pretreated for 10 mins followed by substrate addition and measured after 30 mins by LC/MS/MS analysis; assay type: cell-based
T1 sequence (whole entry): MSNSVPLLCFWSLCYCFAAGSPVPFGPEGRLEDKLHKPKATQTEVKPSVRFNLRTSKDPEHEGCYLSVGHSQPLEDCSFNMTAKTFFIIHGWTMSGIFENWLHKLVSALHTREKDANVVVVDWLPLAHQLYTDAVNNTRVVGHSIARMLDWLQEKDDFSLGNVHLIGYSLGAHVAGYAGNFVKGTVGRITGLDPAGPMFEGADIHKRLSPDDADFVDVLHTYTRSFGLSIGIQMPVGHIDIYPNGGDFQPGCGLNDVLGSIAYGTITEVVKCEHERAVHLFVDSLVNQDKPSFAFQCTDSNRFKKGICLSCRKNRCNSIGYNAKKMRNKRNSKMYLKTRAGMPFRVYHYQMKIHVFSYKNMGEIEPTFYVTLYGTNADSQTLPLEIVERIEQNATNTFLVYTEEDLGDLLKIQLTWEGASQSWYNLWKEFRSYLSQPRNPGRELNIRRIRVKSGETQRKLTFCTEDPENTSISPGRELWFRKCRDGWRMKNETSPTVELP

Mus musculus = test: Effect on plasma HDL-C level in C57BL/6J mouse at 10 to 50 mg/kg, po qd for 5 days measured at 1 day for 5 days; assay type: functional, organism-based
Homo sapiens [2] = species on record: Homo sapiens; test: Selectivity ratio of IC50 for MAGL (unknown origin) to IC50 for endothelial lipase in human HT1080 cells using PED-A1 containing DMPG vesicles as substrate; assay type: cell-based
Homo sapiens [3] = species on record: Homo sapiens; test: Selectivity ratio of IC50 for recombinant human LPL expressed in African green monkey COS7 cells to IC50 for endothelial lipase in human HT1080 cells using PED-A1 containing DMPG vesicles as substrate; assay type: cell-based
Homo sapiens [4] = species on record: Homo sapiens; test: Selectivity ratio of IC50 for recombinant human PL expressed in HEK293F cells to IC50 for endothelial lipase in human HT1080 cells using PED-A1 containing DMPG vesicles as substrate; assay type: cell-based
[5] = target: T2, Endothelial lipase (Mus musculus) (UniProt Q9WVG5); test: Competitive inhibition of recombinant mouse endothelial lipase expressed in HEK293F cells using varying levels of HDL as substrate pretreated for 10 mins followed by substrate addition and measured after 30 mins by LC/MS/MS analysis
T2 sequence (whole entry): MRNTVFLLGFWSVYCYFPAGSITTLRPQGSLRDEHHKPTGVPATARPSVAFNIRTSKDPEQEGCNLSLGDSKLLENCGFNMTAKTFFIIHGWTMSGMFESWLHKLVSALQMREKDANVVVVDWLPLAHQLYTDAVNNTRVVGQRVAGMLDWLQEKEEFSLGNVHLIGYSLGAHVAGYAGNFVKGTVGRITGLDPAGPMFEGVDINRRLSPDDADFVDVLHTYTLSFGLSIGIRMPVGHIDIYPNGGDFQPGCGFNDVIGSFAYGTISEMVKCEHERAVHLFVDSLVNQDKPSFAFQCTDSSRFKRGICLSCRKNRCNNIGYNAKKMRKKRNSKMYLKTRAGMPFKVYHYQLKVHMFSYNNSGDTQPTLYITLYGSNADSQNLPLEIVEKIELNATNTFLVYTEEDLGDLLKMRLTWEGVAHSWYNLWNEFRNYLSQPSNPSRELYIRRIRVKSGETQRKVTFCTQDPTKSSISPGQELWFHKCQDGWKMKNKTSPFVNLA

Homo sapiens [6] = species on record: Homo sapiens; test: Selectivity ratio of IC50 for recombinant human HL expressed in African green monkey COS7 cells using HDL as substrate to IC50 for endothelial lipase in human HT1080 cells using HDL as substrate; assay type: cell-based
Endothelial lipase [7] = target: T3, Endothelial lipase (Homo sapiens, UniProt Q9Y5X9); test: Inhibition of endothelial lipase in human HT1080 cells using PED-A1 containing DMPG vesicles as substrate pretreated for 20 mins followed by substrate addition and measured every 20 secs for 10 mins by fluorescence assay; assay type: cell-based
T3 sequence (Q9Y5X9 whole entry): T1 sequence (whole entry)

[8] = target: T1, Endothelial lipase (Homo sapiens); test: Ratio of IC50 for endothelial lipase in human HT1080 cells using HDL as substrate to IC50 for endothelial lipase in human HT1080 cells using PED-A1 containing DMPG vesicles as substrate; assay type: cell-based
Endothelial lipase [9] = target: T3, Endothelial lipase; test: Inhibition of endothelial lipase in human HT1080 cells using HDL as substrate pretreated for 10 mins followed by substrate addition and measured after 30 mins by LC/MS/MS analysis; assay type: cell-based
[10] = Cmax in CD1 mouse at 1 mg/kg, po administered as bolus dose; assay type: ADME, organism-based; set-up: dose 1 mg/kg, route oral; details: in vivo
[11] = target: T4, Hepatic triacylglycerol lipase (Homo sapiens, UniProt P11150); test: Inhibition of recombinant human HL expressed in African green monkey COS7 cells using HDL as substrate pretreated for 10 mins followed by substrate addition and measured after 30 mins by LC/MS/MS analysis
T4 sequence (P11150 whole entry): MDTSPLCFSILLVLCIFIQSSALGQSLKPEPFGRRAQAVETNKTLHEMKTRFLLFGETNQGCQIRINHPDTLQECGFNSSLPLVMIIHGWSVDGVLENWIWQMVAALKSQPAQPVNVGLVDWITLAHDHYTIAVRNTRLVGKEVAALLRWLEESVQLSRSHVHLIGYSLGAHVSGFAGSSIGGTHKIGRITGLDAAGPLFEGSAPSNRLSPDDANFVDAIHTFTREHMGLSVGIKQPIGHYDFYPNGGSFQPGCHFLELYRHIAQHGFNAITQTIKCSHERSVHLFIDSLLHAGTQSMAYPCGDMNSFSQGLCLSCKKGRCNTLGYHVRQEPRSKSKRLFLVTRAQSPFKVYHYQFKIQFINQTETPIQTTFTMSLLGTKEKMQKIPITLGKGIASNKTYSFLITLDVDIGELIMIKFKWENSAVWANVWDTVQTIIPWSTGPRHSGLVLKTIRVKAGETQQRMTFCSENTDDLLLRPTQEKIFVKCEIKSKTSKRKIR

[12] = Dissociation constant, pKa of the compound; assay type: physicochemical
[13] = Half life in CD1 mouse at 1 mg/kg, iv administered as bolus dose; assay type: ADME, organism-based; details: in vivo
[14] = Total AUC in CD1 mouse at 1 mg/kg, po administered as bolus dose; assay type: ADME, organism-based; set-up: dose 1 mg/kg, route oral, time AUCmax; details: in vivo
[15] = Oral bioavailability in CD1 mouse at 1 mg/kg administered as bolus dose; assay type: ADME, organism-based; details: in vivo
[16] = Total AUC in CD1 mouse at 1 mg/kg, iv administered as bolus dose; assay type: ADME, organism-based; set-up: dose 1 mg/kg, time AUCmax, route intravenous; details: in vivo
[17] = Clearance in CD1 mouse at 1 mg/kg, iv administered as bolus dose; assay type: ADME, organism-based; details: in vivo
[18] = Cmax in CD1 mouse at 1 mg/kg, iv administered as bolus dose; assay type: ADME, organism-based; set-up: dose 1 mg/kg, route intravenous; details: in vivo
Lipoprotein lipase = target: T5, Lipoprotein lipase (Homo sapiens, UniProt P06858); test: Inhibition of recombinant human LPL expressed in African green monkey COS7 cells using DGGR/DMPG vesicles as substrate pretreated for 10 mins followed by substrate addition and measured for 5 mins
T5 sequence (P06858 whole entry): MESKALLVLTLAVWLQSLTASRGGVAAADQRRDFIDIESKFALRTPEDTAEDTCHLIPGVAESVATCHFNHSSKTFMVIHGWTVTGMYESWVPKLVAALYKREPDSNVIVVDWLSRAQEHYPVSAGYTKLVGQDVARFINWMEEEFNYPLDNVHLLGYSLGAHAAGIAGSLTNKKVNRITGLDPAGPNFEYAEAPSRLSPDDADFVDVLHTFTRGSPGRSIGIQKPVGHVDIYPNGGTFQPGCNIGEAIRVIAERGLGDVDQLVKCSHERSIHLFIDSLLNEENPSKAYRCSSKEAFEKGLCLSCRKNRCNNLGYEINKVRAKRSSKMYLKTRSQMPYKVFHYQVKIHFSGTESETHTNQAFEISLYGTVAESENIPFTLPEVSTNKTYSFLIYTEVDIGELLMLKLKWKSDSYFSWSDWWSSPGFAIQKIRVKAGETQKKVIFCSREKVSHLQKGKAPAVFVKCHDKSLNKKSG

[19] = Half life in CD1 mouse at 1 mg/kg, po administered as bolus dose; assay type: ADME, organism-based; details: in vivo
[20] = target: T1, Endothelial lipase (Homo sapiens); test: Reversible inhibition of endothelial lipase in human HT1080 cells at 2 uM using PED-A1 containing DMPG vesicles as substrate pretreated for 20 mins followed by compound washout prior to substrate addition and measured every 20 secs for 10 mins by fluorescence assay; assay type: cell-based

Row | SMILES | IC50 (Endothelial lipase [7]) | Ratio IC50 [8] | IC50 (Endothelial lipase [9]) | also measured
1 | CCN1CC(C(=O)NC(C)CCc2ccc(Cl)c(Cl)c2)=C(O)C1=O (stereo in doubt; 7c) |  |  |  | inhibition [1]: inactive; Activity (Mus musculus): inactive; Ratio IC50 (Homo sapiens [2]): > 250; Ratio IC50 (Homo sapiens [3]): > 250; Ratio IC50 (Homo sapiens [4]): > 250; inhibition [5]: inactive; Ratio IC50 (Homo sapiens [6]): 12
2 | CCN1CC(C(=O)NC(C)CCc2ccc(Cl)c(Cl)c2)=C(O)C1=O (racemic) | 44 nM |  | 264 nM | 
3 | CCN1CC(C(=O)NC(C)CCc2ccc(Cl)c(Cl)c2)=C(O)C1=O (stereo in doubt; 7d) | 910 nM |  | 835 nM | 
4 | O=C(NCCCc1ccc(Cl)c(Cl)c1)C1=C(O)C(=O)N(CCN2CCOCC2)C1 | 190 nM |  |  | 
5 | CN1CC(C(=O)NCCCc2ccccc2)=C(O)C1=O | 5830 nM |  |  | 
6 | O=C(NCCCc1ccc(Cl)c(Cl)c1)C1=C(O)C(=O)N(Cc2ccccc2)C1 |  | 11 to 150 |  | 
7 | O=C(NCCCc1ccc(Cl)c(Cl)c1)C1=C(O)C(=O)N(CCOc2ccccc2)C1 |  | 11 to 150 | 826 nM | 
8 | CCN1CC(C(=O)NCCCc2ccc(Cl)c(Cl)c2)=C(NCCc2ccncc2)C1=O | 59 nM | > 50 | 5990 nM | 
9 | CS(=O)(=O)NC(=O)CCN1CC(C(=O)NCCCc2ccc(Cl)c(Cl)c2)=C(O)C1=O | 95 nM | 11 to 150 | 1050 nM | 
10 | Cn1ccc(C(=O)NCCCc2ccc(Cl)c(Cl)c2)c(O)c1=O | 61 nM |  |  | Cmax [10]: 2 µM; IC50 [11]: 16 nM; pKa [12]: 6.5; half-life [13]: 4.9 h; AUC [14]: 16 µM·h; bioavailability [15]: 82%; AUC [16]: 19 µM·h; clearance [17]: 2.5 mL/min/kg; Cmax [18]: 25 µM; IC50 (Lipoprotein lipase): > 90000 nM; half-life [19]: 2.9 h; inhibition [20]: Active
11 | CN1CC(C(=O)NCCc2ccc(Cl)c(Cl)c2)=C(O)C1=O | 296 nM |  |  | 
12 | CN1C(=O)C(O)=C(C(=O)NCCCc2ccc(Cl)c(Cl)c2)C1c1ccccc1Cl (centres undefined) | 59 nM | 60 to 100 | 5750 nM | 
13 | CN1C(=O)C(O)=C(C(=O)NCCCc2ccc(Cl)c(Cl)c2)C1C1CC1 (centres undefined) | 88 nM | 60 to 100 | 5290 nM | 

Further lines, with some results ahead:

Row | IC50 (Endothelial lipase [7]) | Ratio IC50 [8] | IC50 (Endothelial lipase [9]) | SMILES | also measured
14 | 30 nM | 11 to 150 | 3520 nM | CCN1CC(C(=O)NCCCc2ccc(Cl)c(Cl)c2)=C(O)C1=O | 
15 | 25 nM | > 50 | 4210 nM | CCN1CC(C(=O)NCCCc2ccc(Cl)c(Cl)c2)=C(NCCCN2CCCCC2)C1=O | 
16 | 41 nM | 11 to 150 | 1760 nM | CN1CC(C(=O)NCCCc2ccc(Cl)c(Cl)c2)=C(O)C1=O | Cmax [10]: 8.2 µM; IC50 [11]: 76 nM; pKa [12]: 4.8; half-life [13]: 3.4 h; AUC [14]: 18 µM·h; bioavailability [15]: 76%; AUC [16]: 24 µM·h; clearance [17]: 2.1 mL/min/kg; Cmax [18]: 32 µM; IC50 (Lipoprotein lipase): > 37000 nM; half-life [19]: 3.2 h
17 | < 10 nM | > 50 | 3020 nM | CCN1CC(C(=O)NCCCc2ccc(Cl)c(Cl)c2)=C(NC)C1=O | 
18 | 19 nM | > 50 | 945 nM | CCN1CC(C(=O)NCCCc2ccc(Cl)c(Cl)c2)=C(NCCOC(C)C)C1=O | 
19 | 19 nM | 11 to 150 | 2440 nM | O=C(NCCCc1ccc(Cl)c(Cl)c1)C1=C(O)C(=O)N(CCCN2CCCC2=O)C1 | 
20 | 29 nM | 60 to 100 | 1770 nM | CN1C(=O)C(O)=C(C(=O)NCCCc2ccc(Cl)c(Cl)c2)C1CC(C)(C)C (centres undefined) | 
